# Earlier results in patent US20080031951A1, “Compositions and methods for the inhibition of phospholipase A2” (priority 2005, published 2008).
# What was measured:
# [1] = test system: intestine injury following ischemia and reperfusion; settings: rats, oral administration
# [2] = test system: colitis; settings: rats, dextran sulfate- and trinitrobenzene sulfonic acid-induced
# [3] = test system: sPLA2 activity; settings: guinea pig model of ARDS
# [4] = test system: release of thromboxane A2 triggered by exogenously added hGIIA; settings: guinea pig BAL fluids containing macrophages, eosinophils and epithelial cells
# [5] = test system: toxoplasmosis; settings: injection, murine toxoplasmosis model
# [6] = biological target: T1, hGIIA (Homo sapiens, UniProt P14555); parameters: host or cells: transgenic mice overexpressing hGIIA, blood; settings: intravenous administration, transgenic mice overexpressing hGIIA
# T1 sequence (P14555 21-144): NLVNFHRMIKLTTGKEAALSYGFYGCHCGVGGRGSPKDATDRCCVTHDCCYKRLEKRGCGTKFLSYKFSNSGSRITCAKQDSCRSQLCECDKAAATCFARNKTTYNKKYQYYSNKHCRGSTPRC
# [7] = test system: hyperalgesia; settings: lumbar intrathecal administration, 3 rat models of hyperalgesia
# [8] = test system: asthma
# [9] = test system: rheumatoid arthritis
# [10] = biological target: T1, hGIIA; settings: more potent than LY311727
# [11] = test system: sepsis and organ failure; settings: humans with sepsis and organ failure
# [12] = biological target: mGIIA (Mus musculus, UniProt P31482)
# Sequence of mGIIA (P31482 22-146): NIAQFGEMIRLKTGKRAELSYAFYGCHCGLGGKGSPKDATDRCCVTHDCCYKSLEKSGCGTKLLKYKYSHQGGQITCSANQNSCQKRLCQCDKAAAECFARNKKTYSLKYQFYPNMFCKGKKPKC
# [13] = test system: pleurisy; settings: rat, carageenin-induced pleurisy
# [14] = biological target: mGX (Mus musculus, UniProt Q9QXX3)
# Sequence of mGX (Q9QXX3 29-151): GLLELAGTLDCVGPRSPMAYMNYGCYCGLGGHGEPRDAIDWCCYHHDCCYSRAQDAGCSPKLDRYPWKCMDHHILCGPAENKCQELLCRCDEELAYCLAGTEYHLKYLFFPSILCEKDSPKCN
# [15] = biological target: mGV (Mus musculus, UniProt P97391)
# Sequence of mGV (P97391 21-137): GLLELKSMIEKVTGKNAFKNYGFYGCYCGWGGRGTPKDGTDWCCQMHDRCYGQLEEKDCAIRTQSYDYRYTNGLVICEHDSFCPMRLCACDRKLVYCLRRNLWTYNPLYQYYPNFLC
# [16] = biological target: mGIID (Mus musculus, UniProt Q9WVF6)
# Sequence of mGIID (Q9WVF6 20-144): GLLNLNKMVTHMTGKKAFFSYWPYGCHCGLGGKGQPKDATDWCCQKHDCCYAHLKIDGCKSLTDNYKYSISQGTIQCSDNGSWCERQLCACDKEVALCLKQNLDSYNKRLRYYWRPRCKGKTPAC
# [17] = test system: ear edema; settings: mice, tetracenoylphorbol-13-acetate induced
# [18] = biological target: mGIIE (Mus musculus, UniProt Q9QUL3)
# Sequence of mGIIE (Q9QUL3 20-142): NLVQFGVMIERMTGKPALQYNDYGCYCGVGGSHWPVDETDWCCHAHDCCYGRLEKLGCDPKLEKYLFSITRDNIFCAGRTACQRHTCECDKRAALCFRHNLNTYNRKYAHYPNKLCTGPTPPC
# [19] = biological target: group X sPLA2 / M-type receptor; settings: mouse cells expressing the M-type receptor; read-out: IC50, block of binding of group X sPLA2 to M-type receptor
# [20] = test system: PGE2 production in rat gastric epithelial cells; settings: induced by TGF-α and IL-1, rat gastric epithelial cells
# [21] = biological target: T2, porcine pancreatic group IB sPLA2 / M-type receptor (Sus scrofa, UniProt P00592); settings: mouse cells expressing the M-type receptor; read-out: IC50, block of binding of porcine pancreatic group IB sPLA2 to M-type receptor
# T2 construct: host or cells: mouse cells expressing the M-type receptor
# T2 sequence (P00592 23-146): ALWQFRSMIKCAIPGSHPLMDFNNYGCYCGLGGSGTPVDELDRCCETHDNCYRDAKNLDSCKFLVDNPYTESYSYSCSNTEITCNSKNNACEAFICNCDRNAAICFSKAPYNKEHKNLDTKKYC
# [22] = test system: septic shock; settings: LPS injection, wild-type mice
structure (smiles),measurement,setting,value
O=C(O)CC[C@@H](Cc1ccc(OCc2ccccc2)cc1)NC(=O)CCCCCCc1ccccc1 [5-(4-benzyloxyphenyl)-4s-(7-phenylheptanoylamino)-pentanoic acid],protection of intestine from ischemia and reperfusion injury,[1],preserved rats intestine from injury
same,protection from colitis,[2],protected rats
CCc1c(CC(N)=O)c2cc(OCCCP(=O)(O)O)ccc2n1Cc1ccccc1 [LY311727],inhibition of sPLA2 activity induced by lipopolysaccharides,[3],could also inhibit
same,inhibition of release of thromboxane A2,[4],able to inhibit
same,mortality,[5],earlier mortality
same,PLA2 catalytic activity in blood,[6],loss of PLA2 catalytic activity in blood
same,inflammation-related symptoms,[7],attenuated all the inflammation-related symptoms observed
CCc1c(C(=O)C(N)=O)c2c(OCC(=O)OC)cccc2n1Cc1ccccc1 [LY333013],tolerability,[8]; in these patients,well tolerated
same,benefit on inhaled allergen challenge,[8]; subjects with asthma,failed to show any benefit
same,"effect on rheumatoid arthritis pathology, intravenous",[9]; administered intravenously,positive impacts on the pathology
same,"effect on rheumatoid arthritis pathology, oral","[9]; orally distributed, patients with rheumatoid arthritis","significant reduction of the pathology during the first week of trial, but the benefits were lost thereafter"
same,protection from colitis,[2],protected rats
Cc1c(C(=O)C(N)=O)c2c(OCC(=O)O)cccc2n1Cc1ccccc1-c1ccccc1 [Me-indoxam],potency to inhibit hGIIA relative to LY311727,[10],about 20 fold
CCc1c(C(=O)C(N)=O)c2c(OCC(=O)[O-])cccc2n1Cc1ccccc1.[Na+] [S-5920/LY315920Na],clinical outcome versus placebo,[11],no significant differences
CCCCCCCCCCCC(=O)c1c(O)c(C(=O)CCCCCCCCCCC)c(O)c(C2CC(c3ccc(O)cc3)Oc3cc(O)ccc32)c1O (stereo not shown) [YM-26734],inhibition of mGIIA,[12],potent inhibitor
same,accumulation of exudate fluid and leukocytes,[13],significantly decreased
same,inhibition of mGX,[14],potent inhibitor
same,inhibition of mGV,[15],potent inhibitor
same,inhibition of mGIID,[16],potent inhibitor
same,ear edema,[17],reduced
same,inhibition of mGIIE,[18],potent inhibitor
CCc1c(C(=O)C(N)=O)c2c(OCC(=O)O)cccn2c1Cc1ccccc1-c1ccccc1 [indoxam],IC50,[19],900 nM
same,PGE2 production,[20],inhibited
same,IC50,[21],130 nM
same,septic shock,[22],attenuated
